Laboratory results from patent publication US4994479A, “Phenylene derivatives and anti-allergic use thereof” (Yamanouchi Pharmaceutical Co., Ltd., priority 1985, dated 1991).
pIC50: −log10 of the molar value.

Legend:
[1] = system: SRS-A-induced contractions of guinea-pig ileum; assay: Inhibition of SRS-A-induced contractions of isolated guinea-pig ileum; parameters: species or system guinea-pig (male Hartley); details: for pIC50: Cavia porcellus, 20 min, submaximal concentration of SRS-A, incubation 20 minutes; for anti-SRS-A activity: in words
Procedure: (§1) Male Hartley guinea- pigs, weighing 500 to 700 g were sacrificed by a blow on the head. The ileum and tracheal strips prepared according to the method of Constantine (1965) were suspended with 1.0 g tension in an organ bath containing 10 ml of Tyrode solution equilibrated with a mixture of 95% O2 and 5% CO2 at 37° C. The tissues were equilibrated for 60 minutes; during this period the Tyrode solution was replaced every 15 minutes and the loading tension was adjusted to 1.0 g. The developed tension of the tissues was measured isometrically with a strain gauge transducer, and recorded on a Recticorder. Both the contractile response of the ileum to submaximal concentration of SRS-A (derived from guinea-pig lung) and tracheal response to 10^-8 M LTD4 were recorded in the absence and then the presence of various concentrations of test compounds. The incubation time of the compounds was 20 minutes.

[2] = system: LTD4-enhanced vascular permeability; assay: Inhibition of LTD4-enhanced vascular permeability in guinea-pigs; assay type: in vivo, guinea-pig (male Hartley); details: for ED50: Cavia porcellus, 30 minutes before intradermal 5 ng LTD4; for ED50 / inhibition of LTD4-enhanced vascular permeability: oral; for anti-Leukotriene effect by oral route / inhibition of LTD4-enhanced vascular permeability: in words; for inhibition of LTD4-enhanced vascular permeability: 30 minutes before LTD4
Procedure: Male Hartley guinea-pigs weighing 270 to 305, g starved for 16 hours, were intradermally injected with 5 ng LTD4 in a volume of 0.1 ml into two sites on the shaved back. In addition, 0.1 ml of vehicle was injected intradermally in each animal to see non-specific irritation. One ml of saline containing 1% Evans […] was intravenously injected 2 minutes before LTD4 injection. The leaked dye at the site of LTD4 or vehicle injection was extracted according to the method of Harada et al. (1971) and measured photometrically at 620 nm. The LTD4 -induced skin reaction was expressed as a difference in the amount of dye between LTD4 and vehicle. Test compounds were orally administered 30 minutes before LTD4 injection.

[3] = system: LTD4-induced contractions of guinea-pig trachea; assay: Inhibition of LTD4-induced contractions of isolated guinea-pig trachea; parameters: species or system guinea-pig (male Hartley); details: for pIC50: Cavia porcellus, 20 min, 10^-8 M LTD4, incubation 20 minutes; for inhibition of contractions induced by LTD4: in words
Procedure: as §1

Structure (SMILES) | pIC50 [1] | anti-SRS-A activity [1] | ED50 [2] [mg/kg] | anti-Leukotriene effect by oral route [2] | inhibition of LTD4-enhanced vascular permeability [2] | pIC50 [3] | inhibition of contractions induced by LTD4 [3]
O=C(O)CCc1ccccc1NC(=O)c1ccc(OCCCCc2ccccc2)cc1 [Example 18, 3-[o-[p-(4-Phenylbutoxy)benzamido]phenyl]propionic acid] | 7.48 | potent anti-SRS-A activity | – | – | – | – | –
CCCCCCCOc1cccc(C(=O)Nc2ccccc2OCc2nnn[nH]2)c1 [Example 23, 3-Heptyloxy-2'-(5-tetrazolylmethoxy)benzanilide] | 7.36 | potent anti-SRS-A activity | 22.8 | potent anti-Leukotriene effect | dose-dependently inhibited | 6.40 | inhibited the contractions induced by LTD4
O=C(O)COc1ccccc1NC(=O)c1ccc(OCCCCc2ccccc2)cc1 [Example 42, o-[p-(4-Phenylbutoxy)benzamido]phenoxyacetic acid] | 7.09 | potent anti-SRS-A activity | – | – | – | – | –
CCOC(=O)CCc1ccccc1NC(=O)c1ccc(OCCCCc2ccccc2)cc1 [Example 10, Ethyl 3-[o-[p-(4-phenylbutoxy)benzamido]phenyl]propionate] | 7.74 | potent anti-SRS-A activity | – | – | – | – | –
Cc1ccc(OCC(=O)O)c(NC(=O)c2ccc(OCCCCc3ccccc3)cc2)c1 [Example 39, 4-methyl-2-[p-(4-phenylbutoxy)benzamido]phenoxyacetic acid] | 8.14 | potent anti-SRS-A activity | 36.1 | potent anti-Leukotriene effect | dose-dependently inhibited | 6.60 | inhibited the contractions induced by LTD4
O=C(O)COc1ccc([N+](=O)[O-])cc1NC(=O)c1ccc(OCCCCc2ccccc2)cc1 [Example 41, 4-Nitro-2-[p-(4-phenylbutoxy)benzamido]phenoxyacetic acid] | 8.13 | potent anti-SRS-A activity | – | – | – | – | –
O=C(O)COc1ccc(Cl)cc1NC(=O)c1ccc(OCCCCc2ccccc2)cc1 [Example 40, 4-Chloro-2-[p-(4-phenylbutoxy)benzamido]phenoxyacetic acid] | 8.44 | potent anti-SRS-A activity | 5.5 | potent anti-Leukotriene effect | dose-dependently inhibited | 7.24 | inhibited the contractions induced by LTD4
